Results on six molecules are retold here after ChEMBL document CHEMBL1153718, “1,2,4-Triazolyl azabicyclo[3.1.0]hexanes: a new series of potent and selective dopamine D(3) receptor antagonists” (J Med Chem, 2010).

The nature of data set [1]: Cmax in Hartley guinea pig at 0.5 to 15 mg/kg, iv. The class given is ADME, organism-based, Cavia porcellus. Also noted: dose 0.5-15 mg/kg, route intravenous. To be noted: in vivo.
The nature of data set [2]: Oral bioavailability in rat. The class given is ADME, organism-based. Conditions: in vivo.
In the next data set the test system is Rattus norvegicus. Description: Volume of distribution at steady state in po dosed rat. It is filed as ADME, organism-based. To be noted: in vivo.
A short description of data set [3]: Half life in po dosed rat. It is filed as ADME, organism-based. To be noted: in vivo.
Data set [4] in a line: Clearance in po dosed rat blood. It is filed as ADME, organism-based.

For orientation: Cmax means the peak of the concentration-time curve. One may read the bioavailability as the share of a dose that reaches the circulation, judged against a reference dose that is usually intravenous. A word on the half-life: it is how long it takes for the measured level to halve. A low value points to rapid decline. Usually CL/F stands for the apparent clearance, not corrected for the fraction that reaches the circulation. In turn, `Cc1ncccc1-c1nnc(SCCCN2C[C@@H]3C[C@]3(c3ccc(C(F)(F)F)cc3)C2)n1C` gave a Cmax in data set [1] of 6240 ng/mL. Moreover, the bioavailability in data set [2] amounted to 50%. In the data set with Rattus norvegicus, the Vdss was 2.5 L/kg. The same molecule gave a half-life in data set [3] of 2.1 h. In data set [4], this molecule yielded a CL/F of 18 mL/min/kg.

In turn, `Cc1nc(C)c(-c2nnc(SCCCN3C[C@@H]4C[C@]4(c4ccc(C(F)(F)F)cc4)C3)n2C)s1` had a Cmax in data set [1] of 8320 ng/mL. Moreover, in data set [2], the bioavailability turned out to be 23%. The same molecule registered a Vdss in the data set on Rattus norvegicus of 3.9 L/kg. The molecule also gave a half-life in data set [3] of 2 h. The molecule also returned a CL/F in data set [4] of 26 mL/min/kg.

Consider `Cn1c(SCCCN2C[C@@H]3C[C@]3(c3ccc(C(F)(F)F)cc3)C2)nnc1-c1ccnnc1`, for which the Cmax in data set [1] is 9580 ng/mL. The molecule further gave a bioavailability in data set [2] of 46%. Besides, in the data set with Rattus norvegicus, the Vdss worked out at 2.2 L/kg. In data set [3], this molecule showed a half-life of 2.1 h. The CL/F in data set [4] is 13 mL/min/kg.

Molecule `Cc1ncoc1-c1nnc(SCCCN2CC3CC3(c3ccc(C(F)(F)F)cc3)C2)n1C` (racemic) returned a bioavailability in data set [2] of 85%. Also, the Vdss in the data set with Rattus norvegicus was determined as 3.5 L/kg. Moreover, the half-life in data set [3] is 3.2 h. The CL/F in data set [4] turned out to be 14 mL/min/kg.

`Cc1ncoc1-c1nnc(SCCCN2CC3CC3(c3ccc(Cl)cc3)C2)n1C` (single isomer, unassigned; 51) came in with a bioavailability in data set [2] of 31%. The Vdss in the data set with Rattus norvegicus stood at 2.6 L/kg. Also, the half-life in data set [3] is 1.3 h. Moreover, the CL/F in data set [4] stood at 40 mL/min/kg.

On to `Cc1ncoc1-c1nnc(SCCCN2CC3CC3(c3ccc(C(F)(F)F)cc3F)C2)n1C` (single isomer, unassigned; 74), for which, in data set [1], the Cmax worked out at 8640 ng/mL. The bioavailability in data set [2] was found to be 47%. Further, the Vdss in the data set on Rattus norvegicus was determined as 4.3 L/kg. The half-life in data set [3] was 3.7 h. This molecule yielded a CL/F in data set [4] of 18 mL/min/kg.
